# Patent US20160021879A1, “SYNTHETIC LIPOAMINO ACID GLUCOSAMINE DERIVATIVES FOR IMPROVEMENT OF PLANT GROWTH AND YIELD” (E.I. DU PONT DE NEMOURS AND COMPANY, priority 2013, published 2016)
# Legend:
# soybean seeds [1] = test: Plant growth assay (radical length of germinated soybean seeds); format: in vivo; conditions: control 55%; for percentage of germinated soybean seeds with radical length greater than 1.5 cm: 10^-7 M, germinated 24 h, then light for additional 40 h; for Growth Assay: summary table, seeds with radical length > 1.5 cm
# Description: Seeds germinated for 24 h using the seed germination assay above were exposed to light for an additional 40 h. The radical length was measured and the percentage of germinating seeds with a radical length greater than 1.5 cm was determined.
# soybean seeds [2] = test: Seed germination assay (soybean seeds in Petri dishes, radicle emergence counted); format: in vivo; conditions: control 24%; for percent germination of treated soybean seeds: 10^-7 M in DI-water, at 20 h, dark, room temperature; for Germination Yield: summary table, 10^-7 M, 20 h
# Description: Materials were all sterilized before use. An aqueous solution of the test compound (25 mL, 10^−7 M in DI-water) was prepared for a set of five repeat experiments. Five Petri dishes and 100 soybean seeds were used to test one compound. A piece of Whatman filter paper was used to cover the inner side of each Petri dish to allow uniform distribution of testing solution. Twenty soybean seeds were placed on the filter paper area of one Petri dish. Five mL of the test compound solution was carefully poured in the Petri dish. Control experiments were set up the same way with 20 soybean seeds and 5 mL of DI-water per dish without any compounds. The lid was placed on the Petri dish and sealed with Parafilm. Five dishes with repeat experiments were stacked. One stack of dishes was wrapped twice with aluminum foil to prevent the seeds from receiving any light. The stacks were transferred to an incubator maintained at room temperature and the seeds were germinated in the dark. After 20 h, the stacks were pulled out for measurement. The number of germinated seeds was counted and the percent germination on each dish was calculated. Radicle emergence was used as the germination indicator. The dishes were placed unwrapped at room temperature for one day and the number of germinated seeds was counted to ensure seeds were viable and that the germination results were not caused by poor seed quality. Dishes in which over 90% of the seeds germinated were considered normal. The standard deviation of five repeats was calculated. Test results with a 10% or lower standard deviation were considered good. Compounds acting as plant performance enhancers should promote a statistically significant increase in average percentage of germination compared to the control.
SMILES,percentage of germinated soybean seeds with radical length greater than 1.5 cm (soybean seeds [1]) [%],Growth Assay (soybean seeds [1]) [%],percent germination of treated soybean seeds (soybean seeds [2]) [%],Germination Yield (soybean seeds [2]) [%]
"CO[C@@H]1O[C@H](CO)[C@@H](O)[C@H](O)[C@H]1NC(=O)CNC(=O)/C=C/C=C/c1ccccc1 [Compound 11, methyl 2-deoxy-2-[({[(2E,4E)-5-phenylpenta-2,4-dienoyl]amino}acetyl)amino]-β-D-glucopyranoside]",82,82,39,39
"CO[C@@H]1O[C@H](CO)[C@@H](O)[C@H](O)[C@H]1NC(=O)CNC(=O)/C=C/c1cccc(C(F)(F)F)c1 [Compound 17, methyl 2-deoxy-2-{[({(2E)-3-[3-(trifluoromethyl)phenyl]prop-2-enoyl}amino)acetyl]amino}-β-D-glucopyranoside]",86,86,44,44
"CCCCCC/C=C/CCCCCCC/C=C/C(=O)NCC(=O)NC1C(OC2C(CO)OC(OC3C(CO)OC(OC4C(CO)OC(OC)C(NC(C)=O)C4O)C(NC(C)=O)C3O)C(NC(C)=O)C2O)OC(CO)C(O)C1O [Compound 21, Methyl 2-deoxy-2-N-({[(2E,11E)-octadeca-2,11-dienoylamino]acetyl}amino)β-D-glucopyranosyl(1→4)-2-acetamido-2-deoxy-β-D-glucopyranosyl-(1→4)-2 acetamido-2-deoxy-β-D-glucopyranosyl-(1→4)-2 acetamido-2-deoxy-β-D-glucopyranoside]",73,73,36,36
"COC1OC(CO)C(O)C(O)C1NC(=O)CNC(=O)C#Cc1ccccc1 [Compound 19, Methyl 2-deoxy-2-N-({[(3-phenylprop-2-ynoyl)amino]acetyl}amino)-β-D-glucopyranoside]",71,71,30,30
"COC(=O)C(CCC(=O)NC1C(OC)OC(CO)C(O)C1O)NC(=O)/C=C/C=C/c1ccccc1 (centres unmarked) [Compound 15, methyl 5-{[4,5-dihydroxy-6-(hydroxymethyl)-2-methoxytetrahydro-2H-pyran-3-yl]amino}-5-oxo-2-{[(2E,4E)-5-phenylpenta-2,4-dienoyl]amino}pentanoate]",74,74,31,31
"CO[C@@H]1O[C@H](CO)[C@@H](O)[C@H](O)[C@H]1NC(=O)[C@H](Cc1ccccc1)NC(=O)/C=C/C=C/c1ccccc1 [Compound 13, Methyl 2-deoxy-2-({N-[(2E,4E)-5-phenylpenta-2,4-dienoyl]phenylalanyl}amino)-β-D-glucopyranoside]",80,80,32,32
"CCCCCC/C=C\CCCCCCC/C=C/C(=O)NCC(=O)NC1C(OC)OC(CO)C(O)C1O (centres unmarked) [Compound 7, methyl 2-deoxy-2-({[(2E,11Z)-octadeca-2,11-dienoylamino]acetyl}amino)hexopyranoside]",79,79,46,46
"CCCCCC/C=C\CCCCCCCC(=O)NCC(=O)NC1C(OC)OC(CO)C(O)C1O [Compound 9, Methyl 2-deoxy-2-N-({[(9Z)-hexadec-9-enoylamino]acetyl}amino)-β-D-glucopyranoside]",73,73,33,33
